From patent US11602534B2, “Pyrimidine derivative kinase inhibitors” (HEFEI INSTITUTES OF PHYSICAL SCIENCE, CHINESE ACADEMY OF …, priority 2017, dated 2023) come the findings set out here.

In experiment [1] the test system is human acute myeloid leukemia cell strain MV4-11. The experiment can be described thus: Proliferation of MV4-11 cells, Cell Titer-Glo. It counts as cell-based. As to conditions: for GI50: Homo sapiens, MV4-11, 72 hours, Cell Titer-Glo, FLT3/ITD. The procedure:
(§1) In addition, in this example the inhibitory activity of preferred compounds (Compound 5 and Compound 135) was tested against the following cell strains: human acute myeloid leukemia cell strain MV4-11 (expressing FLT3/ITD mutant gene), human acute myeloid leukemia cell strain MOLM-13 (expressing FLT3/ITD mutant gene and wild-type FLT3 gene), human acute myeloid leukemia cell strain MOLM-14 (expressing FLT3/ITD mutant gene and wild-type FLT3 gene), human acute myeloid leukemia cell strain OCI-AML-3 (expressing FLT3 A680V mutant gene), human chronic lymphatic leukemia cell strain MEC-1, Chinese hamster lung (CHL) cells, Chinese hamster ovary (CHO) cells, wherein all the cells were purchased from ATCC. In the example the compounds of the present invention were added respectively into the above cells at different concentrations (0.000508 μM, 0.00152 μM, 0.00457 μM, 0.0137 μM, 0.0411 μM, 0.123 μM, 0.370 μM, 1.11 μM, 3.33 μM, 10 μM in DMSO) and the cells were incubated for 72 hours. The number of viable cells was determined by quantification of ATP in living cells using Cell Titer-Glo® (Promega, the USA) Luminescent Cell Viability Assay kit and thereby GI50 was calculated.
(Cellular ATP, detected with luciferase, serves as a proxy for viable cell number.)

Experiment [2] relates to human acute myeloid leukemia cell strain MOLM-14. Briefly: Proliferation of MOLM-14 cells, Cell Titer-Glo. The following applies: for GI50: Homo sapiens, MOLM-14, 72 hours, Cell Titer-Glo, FLT3/ITD and wild-type FLT3, read-out: GI50 MOLM14. It counts as cell-based. The procedure: as §1
The subject of a further experiment is BaF3. Briefly: Proliferation of BaF3 cells, CCK8 cell viability assay. It counts as cell-based. The following applies: Mus musculus, 72 hours. In short, it runs like this:
(§2)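 Murine BaF3 cells made IL-3-independent by retroviral transduction of human kinase domains fused to N-terminal TEL or TPR fragments; parental BaF3 included. Living cells quantified by CCK8 (dehydrogenase activity) read-out, giving GI50 in μM.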
A general note: Formazan colour is commonly taken as a measure of viable cells.

Another experiment relates to Tel-RET-BaF3. The experiment can be described thus: Proliferation of Tel-RET-BaF3 cells, CCK8 cell viability assay. It counts as cell-based. The following applies: Mus musculus, 72 hours, stably expressing RET kinase.
The test system of experiment [3] is Chinese hamster lung (CHL) cells. Briefly: cells. Format: cell-based. The following applies: Cricetulus griseus, 72 hours, Cell Titer-Glo. The procedure:
as §1

The test system of experiment [4] is Chinese hamster ovary (CHO) cells. Briefly: cells. Format: cell-based. The following applies: Cricetulus griseus, 72 hours, Cell Titer-Glo. The procedure:
as §1

The test system of the next experiment is TEL-PDGFRβ-BaF3. The experiment can be described thus: Proliferation of TEL-PDGFRβ-BaF3 cells, CCK8 cell viability assay. It counts as cell-based. As to conditions: Mus musculus, 72 hours, stably expressing PDGFRβ kinase. In short, it runs like this:
(§3)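 Growth inhibition is expressed as GI50 in μM, with living-cell number estimated by reductive dehydrogenase activity in a CCK8 assay. The engineered BaF3 lines express TEL-fused human cKIT, PDGFRα or PDGFRβ and proliferate without IL-3 only through that kinase.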

The test system of another experiment is protein kinase FLT3. Briefly: Phosphorylation of FLT3 in AML cells. Format: cell-based, human. As to conditions: MV-4-11, MOLM-13 and MOLM-14 cell lines; 4 hours; compounds 0.01-3 μM, PKC412 1 μM. The procedure:
In cells having FLT3 gene and/or FLT3/ITD mutant gene, specifically, human acute myeloid leukemia cells MV4-11 (expressing FLT3/ITD mutant gene) cell strain and human acute myeloid leukemia cells MOLM-13 and MOLM-14 (expressing FLT3/ITD mutant gene and wild-type FLT3 gene) cell strains, Compound 5, Compound 135 and a FLT3 kinase inhibitor, PKC412 (purchased from Hao Yuan Chemexpress Company, Shanghai), which was used as the control, were evaluated for their effects in cells on phosphorylation of FLT3 and FLT3/ITD protein kinase and phosphorylation of the closely-related STATS protein which is downstream of FLT3 signaling pathways, as well as their effects on phosphorylation of other relevant protein kinases such as ERK and AKT, by assaying a number of cellular biochemical and functional endpoints. In addition, the effects on C-Myc and phosphorylation of the transcription factor NF-κB subunit p65 was also examined (FIGS. 1a-1f). Compound 5 and Compound 135 at different concentrations (0 μM, 0.01 μM, 0.03 μM, 0.1 μM, 0.3 μM, 1 μM, 3 μM in DMSO) and the FLT3 kinase inhibitor PKC412 (1 μM in DMSO) were used to treat acute myeloid leukemia cells MV-4-11, MOLM13 and MOLM-14 that had FLT3 and/or FLT3/ITD gene for 4 hours, respectively, and then the samples were collected. The effects of the compounds on the phosphorylation of proteins such as STATS, C-Myc, ERK, NF-κB p65, AKT in cells were tested (FIGS. 1a-1f).

In another experiment the test system is Tel-FLT3-BaF3. The experiment can be described thus: Proliferation of Tel-FLT3-BaF3 cells, CCK8 cell viability assay. Format: cell-based. As to conditions: Mus musculus, 72 hours, stably expressing FLT3 kinase. In short, it runs like this: as §2
For another experiment, the system named is Tel-cKit-BaF3. Briefly: Proliferation of Tel-cKit-BaF3 cells, CCK8 cell viability assay. It counts as cell-based, mouse. The following applies: Mus musculus; 72 hours, CCK8; stably expressing cKIT kinase. In short, it runs like this: as §3
A further experiment deals with FLT3-ITD-BaF3. Briefly: Proliferation of FLT3-ITD-BaF3 cells, CCK8 cell viability assay. It counts as cell-based. As to conditions: Mus musculus, 72 hours, stably expressing FLT3/ITD. Summed up:
as §2

The next experiment has as its system TEL-PDGFRα-BaF3. Briefly: Proliferation of TEL-PDGFRα-BaF3 cells, CCK8 cell viability assay. It counts as cell-based. As to conditions: Mus musculus, 72 hours, stably expressing PDGFRα kinase. Summed up:
as §3

A further experiment deals with TEL-VEGFR2-BaF3. Briefly: Proliferation of TEL-VEGFR2-BaF3 cells, CCK8 cell viability assay. The following applies: Mus musculus, 72 hours, stably expressing VEGFR2 kinase. It counts as cell-based. Summed up: as §2
In experiment [5] the test system is human acute myeloid leukemia cell strain OCI-AML-3. Briefly: Proliferation of OCI-AML-3 cells, Cell Titer-Glo. It counts as cell-based. As to conditions: 72 hours, FLT3 A680V. The procedure:
as §1

Molecules are shown by their SMILES.

With `CC(=O)Nc1cc(Oc2ccc(NC(=O)Cc3ccc(F)cc3F)cc2)ncn1` [Example 5, N-[4-(6-acetylamino-pyrimidin-4-yloxy)-phenyl]-2-(2,4-difluoro-phenyl)-acetamide], the GI50 in experiment [1] was 147 nM; in [2], 333 nM; with BaF3, above 10 µM; in the experiment with Tel-RET-BaF3, above 10 µM; in experiment [3], above 10 µM; in experiment [4], above 10 µM. In addition, the 50% growth inhibitory concentration (GI50) in the experiment on TEL-PDGFRβ-BaF3 turned out to be 58 nM; in the experiment with Tel-FLT3-BaF3, 746 nM; with Tel-cKit-BaF3 it was 5.6 µM; in the experiment on FLT3-ITD-BaF3, 30 nM; in the experiment with TEL-PDGFRα-BaF3, 14 nM; in the experiment on TEL-VEGFR2-BaF3, 357 nM. The same compound returned a 50% growth inhibitory concentration (GI50) in experiment [5] above 10 µM. Also, the “inhibition of MV4-11 (in words)” value in experiment [1] (summary of Table 3) is “selectively and strongly inhibited”. Moreover, the “inhibition of MOLM14 (in words)” value in [2] (summary of Table 3) is “selectively and strongly inhibited”. For the same compound, the “phosphorylation of the protein kinase FLT3” value with protein kinase FLT3 is “capable of inhibiting phosphorylation”.

Turning to `CC(=O)Nc1cc(Oc2ccc(NC(=O)Cc3ccccc3C(F)(F)F)cc2)ncn1` [Example 135, N-[4-(6-acetylamino-pyrimidin-4-yloxy)-phenyl]-2-(2-trifluoromethyl-phenyl)-acetamide], the 50% growth inhibitory concentration (GI50) in [1] is 284 nM; in [2], 343 nM; in the experiment on BaF3, above 10 µM; in the experiment on Tel-RET-BaF3, above 10 µM; in [3], above 10 µM; in [4], above 10 µM. Moreover, the GI50 in the experiment on TEL-PDGFRβ-BaF3 is 40 nM; in the experiment on Tel-FLT3-BaF3, 249 nM; with Tel-cKit-BaF3, above 10 µM; in the experiment on FLT3-ITD-BaF3, 32 nM; with TEL-PDGFRα-BaF3, 7 nM; in the experiment with TEL-VEGFR2-BaF3, 1440 nM. Further, the GI50 in experiment [5] was above 10 µM. In addition, the “phosphorylation of the protein kinase FLT3” value with protein kinase FLT3 was “capable of inhibiting phosphorylation”.

What is called GI50 is the concentration at which growth is held to half of that of the control.
